Laboratory results as given in patent US9745305B2, “Modulators of methyl modifying enzymes, compositions and uses thereof” (Constellation Pharmaceuticals, Inc., priority 2013, dated 2017).
pEC50, pIC50: −log10 of the molar value.

How the values were obtained:
EZH2 = EZH2 (Homo sapiens, UniProt Q15910); experiment: EZH2 Assay (3H SAM methyl transfer, rPRC2, FlashPlate); assay type: biochemical; details: rPRC2, biotinylated oligonucleosomes, 0.2 μM 3H SAM, 2 nM EZH2
Method: (§1) EZH2 Assay: Assays were carried out by mixing rPRC2 together with biotinylated oligonucleosome substrates in the presence of the radio-labeled enzyme co-factor, S-adenosyl-L-methionine (^3H SAM) (Perkin Elmer) and monitoring the enzymatically mediated transfer of tritiated methyl groups from ^3H SAM to histone lysine residues. The amount of resulting tritiated methyl histone product was measured by first capturing the biotinylated oligonucleosomes in streptavidin (SAV) coated FlashPlates (Perkin Elmer), followed by a wash step to remove unreacted ^3H SAM, and then counting on a TopCount NXT 384 well plate scintillation counter (Perkin Elmer). The final assay conditions for EZH2 were as follows: 50 mM Tris Buffer pH 8.5, 1 mM DTT, 69 μM Brij-35 detergent, 5.0 mM MgCl2, 0.1 mg/mL BSA, 0.2 μM ^3H SAM, 0.2 μM biotinylated oligonucleosomes, 3.6 μM H3K27me3 peptide and 2 nM EZH2.
(§2) Compound IC50 measurements were obtained as follows: Compounds were first dissolved in 100% DMSO as 10 mM stock solutions. Ten point dose response curves were generated by dispensing varying amounts of the 10 mM compound solution in 10 wells of the 384 well plate (Echo; Labcyte), pure DMSO was then used to backfill the wells to insure all wells have the same amount of DMSO. A 12.5 μL volume of the HMT enzyme, H3K27me3 peptide and oligonucleosome substrate in assay buffer was added to each well of the assay plate using a Multidrop Combi (ThermoFisher). Compounds were pre-incubated with the enzyme for 20 min, followed by initiation of the methyltransferase reaction by addition of 12.5 μL of ^3H SAM in assay buffer (final volume=25 μL). The final concentrations of compounds ranged from a top default concentration of 80 μM down to 0.16 μM in ten 2-fold dilution steps. Reactions were carried out for 60 minutes and quenched with 20 μL per well of 1.96 mM SAH, 50 mM Tris pH 8.5, 200 mM EDTA. Stopped reactions were transferred to SAV coated Flashplates (Perkin Elmer), incubated for 120 min, washed with a plate washer, and then read on the TopCount NXT (1.0 min/well) to measure the amount of methyl histone product formed during the reaction. The amount of methyl histone product was compared with the amount of product formed in the 0% and 100% inhibition control wells allowing the calculation of % Inhibition in the presence of the individual compounds at various concentrations. IC50's were computed using a 4 parameter fit non-linear curve fitting software package (XLFIT, part of the database package, ActivityBase (IDBS)) where the four parameters were IC50, Hill slope, pre-transitional baseline (0% INH), and post-transitional baseline (100% INH); with the latter two parameters being fixed to zero and 100%, respectively, by default.

Y641N EZH2 = Y641N EZH2 (Homo sapiens, UniProt Q15910, Y641N); experiment: Assay for Y641N EZH2 (as the EZH2 assay, H3K27Me2 oligonucleosomes as substrate); assay type: biochemical; details: Y641N EZH2 mutant, reconstituted H3K27Me2 oligonucleosomes as substrate
Method: as §1, §2
Assay for Y641N EZH2 was performed as above using reconstituted H3K27Me2 oligonucleosomes as substrate.

[1] = tested on: H3K27me3 mark in Hela cells expressing wild type EZH2; experiment: H3K27me3 Alpha Hela Assay (AlphaLISA); assay type: cell-based; details: Homo sapiens, 72 hrs, read-out: H3K27me3_Alpha_HeLa (EC50)
Method: H3K27me3 Alpha Hela Assay (AlphaLISA). Ten different doses of each test compound (in a series of 3-fold dilutions) were plated in duplicate 384-well tissue culture treated plates (Catalog #781080; Greiner Bio One; Monroe, N.C.). Hela cells grown in culture were trypsinized and counted using a Countess® cell counter (Catalog # C10281; Life Technologies, Grand Island, N.Y.). Cell were diluted to 67,000 cells per mL in 10% DMEM (Catalog #10569-010 Life Technologies, Grand Island, N.Y.) and 15 μL (1,000 cells) were plated into each well using the Biotek MicroFlo™ Select Dispenser (BioTek Instruments, Inc. Vermont, USA),) of the 384-well plate. Plates were incubated at 37° C./5% CO2 for 72 hrs. One of the duplicate plates was processed for HeLa assay and the other for viability.
To the plate processed for AlphaLISA was added 5 μL per well Cell-Histone Lysis buffer (1×) (Catalog # AL009F1 Perkin Elmer; Waltham, Mass.) and the plate was incubated at RT for 30 minutes on a plate shaker with low speed (Model#4625-Q Thermo Scientific; Waltham, Mass.). Then, 10 μL per well Histone Extraction buffer (catalog # AL009F2; Perkin Elmer; Waltham, Mass.) was added and the plate further incubated at RT for 20 min on plate shaker with low speed. To each well was then added 10 μL per well of a 5× mix of anti-K27me3 acceptor beads plus Biotinylated anti-Histone H3 (C-ter) Antibody (diluted to 3 nM final) (Catalog #AL118 Perkin Elmer; Waltham, Mass.). Dilution of the acceptor beads and then anti-Histone H3 was with 1× Histone Detection buffer (Catalog # AL009F3 Perkin Elmer; Waltham, Mass.) which was produced diluted from the 10× stock provided. The plate was sealed with an aluminum plate sealer and incubated at 23° C. for 60 min. We then added 10 μL 5× solution of Streptavidin Donor beads (Catalog #6760002 Perkin Elmer; Waltham, Mass.) (20 μg/mL final in 1× Histone Detection Buffer), sealed the plate with Aluminum plate sealer and incubated at 23° C. for 30 min. The plates were then read using an EnVision-Alpha Reader (model #2104 Perkin Elmer; Waltham, Mass.).
Data from both assays was analyzed using Assay Assistant (Constellation Pharmaceuticals In-house product) and Activity Base (IDBS Ltd, Surrey, UK) template. Data files were imported to Assay Assistant and assay conditions were specified. A unique Analysis ID was created and the data files exported to Activity Base. An analysis template was created on Activity Base to measure dose-dependent inhibition of H3K27me3 mark and cell viability respectively. Readout of DMSO wells were used to normalize the data. Resulting curves were fitted using Activity base software Model 205 (IDBS Ltd, Surrey, UK). The data was checked for quality, validated and integrated in excel format using SARview (IDBS Ltd, Surrey, UK).

EZH2, sequence (Q15910 whole entry): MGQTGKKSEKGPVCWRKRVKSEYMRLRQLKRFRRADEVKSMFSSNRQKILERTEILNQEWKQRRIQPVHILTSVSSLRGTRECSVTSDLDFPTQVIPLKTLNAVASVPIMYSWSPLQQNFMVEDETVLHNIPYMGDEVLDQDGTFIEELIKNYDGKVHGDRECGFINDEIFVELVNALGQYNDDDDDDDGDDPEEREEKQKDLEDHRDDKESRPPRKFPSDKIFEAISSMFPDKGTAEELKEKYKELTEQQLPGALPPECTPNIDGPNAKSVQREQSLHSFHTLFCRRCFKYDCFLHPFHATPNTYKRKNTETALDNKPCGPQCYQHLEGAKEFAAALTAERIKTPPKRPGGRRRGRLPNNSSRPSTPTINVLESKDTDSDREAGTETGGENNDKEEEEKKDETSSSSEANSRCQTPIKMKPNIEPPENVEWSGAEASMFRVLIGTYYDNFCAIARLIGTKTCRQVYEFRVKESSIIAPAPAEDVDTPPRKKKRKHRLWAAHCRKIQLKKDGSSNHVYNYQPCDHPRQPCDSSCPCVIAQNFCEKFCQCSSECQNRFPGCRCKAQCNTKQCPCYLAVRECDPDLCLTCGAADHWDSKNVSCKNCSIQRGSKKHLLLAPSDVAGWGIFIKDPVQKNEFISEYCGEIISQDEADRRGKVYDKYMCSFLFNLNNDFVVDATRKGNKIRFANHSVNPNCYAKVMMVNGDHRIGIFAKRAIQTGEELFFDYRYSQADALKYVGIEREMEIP
EZH2, sequence (O75530 whole entry partner): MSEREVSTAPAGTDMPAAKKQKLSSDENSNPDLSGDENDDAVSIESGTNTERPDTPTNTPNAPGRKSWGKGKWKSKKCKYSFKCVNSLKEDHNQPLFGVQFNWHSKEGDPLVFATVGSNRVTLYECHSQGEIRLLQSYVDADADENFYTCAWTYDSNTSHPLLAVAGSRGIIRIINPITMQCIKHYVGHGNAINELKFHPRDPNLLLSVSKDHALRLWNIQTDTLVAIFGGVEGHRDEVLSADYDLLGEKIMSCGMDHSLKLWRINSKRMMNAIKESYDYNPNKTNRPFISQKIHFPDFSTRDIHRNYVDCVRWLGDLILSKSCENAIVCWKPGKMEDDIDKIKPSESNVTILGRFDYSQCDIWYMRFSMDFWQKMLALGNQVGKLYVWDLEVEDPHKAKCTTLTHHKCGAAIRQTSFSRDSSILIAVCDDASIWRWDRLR
EZH2, sequence (Q15022 whole entry partner): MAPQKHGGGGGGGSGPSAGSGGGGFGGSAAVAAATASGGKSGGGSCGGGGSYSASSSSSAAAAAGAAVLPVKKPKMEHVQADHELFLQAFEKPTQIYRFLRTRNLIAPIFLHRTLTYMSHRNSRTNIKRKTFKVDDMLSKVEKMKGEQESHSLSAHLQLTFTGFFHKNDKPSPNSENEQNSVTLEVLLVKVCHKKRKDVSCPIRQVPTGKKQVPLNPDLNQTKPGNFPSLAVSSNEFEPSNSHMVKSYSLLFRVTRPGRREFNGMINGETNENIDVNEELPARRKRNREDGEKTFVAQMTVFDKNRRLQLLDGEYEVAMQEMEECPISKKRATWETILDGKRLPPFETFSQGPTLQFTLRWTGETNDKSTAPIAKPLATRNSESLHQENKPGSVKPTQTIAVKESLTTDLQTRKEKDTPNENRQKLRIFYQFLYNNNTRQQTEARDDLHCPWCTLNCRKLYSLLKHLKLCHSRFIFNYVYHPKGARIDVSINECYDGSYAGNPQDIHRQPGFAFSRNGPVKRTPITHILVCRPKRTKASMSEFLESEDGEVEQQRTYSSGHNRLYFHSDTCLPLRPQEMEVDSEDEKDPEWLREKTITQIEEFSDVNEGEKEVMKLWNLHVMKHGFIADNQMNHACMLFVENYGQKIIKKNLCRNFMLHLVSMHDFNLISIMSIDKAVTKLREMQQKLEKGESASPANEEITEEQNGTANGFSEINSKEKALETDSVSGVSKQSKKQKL
Y641N EZH2, sequence (Q15910 whole entry Y641N): as the sequence (Q15910 whole entry) above, with Y641N counted along it
Y641N EZH2, sequence (O75530 whole entry partner): as the sequence (O75530 whole entry partner) above
Y641N EZH2, sequence (Q15022 whole entry partner): as the sequence (Q15022 whole entry partner) above

Structure (SMILES)	pIC50 (EZH2)	pIC50 (Y641N EZH2)	EZH2 IC50 (EZH2)	Y641N EZH2 IC50 (Y641N EZH2)	pEC50 [1]
COc1cc(C)[nH]c(=O)c1CNC(=O)c1c(C)c(C(C)N(C)C(C)=O)n2ncccc12 (racemic) [Compound 104, (±)-N-((4-methoxy-6-methyl-2-oxo-1,2-dihydropyridin-3-yl)methyl)-6-methyl-7-(1-(N-methylacetamido)ethyl)pyrrolo[1,2-b]pyridazine-5-carboxamide]	> 7.00	6.00 to 7.00			
COc1cc(C)[nH]c(=O)c1CNC(=O)c1c(C)c(C(C)c2cccn(C)c2=O)n2ncccc12 (racemic) [Compound 111, (±)-N-((4-methoxy-6-methyl-2-oxo-1,2-dihydropyridin-3-yl)methyl)-6-methyl-7-(1-(1-methyl-2-oxo-1,2-dihydropyridin-3-yl)ethyl)pyrrolo[1,2-b]pyridazine-5-carboxamide]		5.00 to 6.00	*(0.25 μM)		
CCS(=O)(=O)N1CCC(C(C)c2c(C)c(C(=O)NCc3c(OC)cc(C)[nH]c3=O)n3ccncc23)CC1 (racemic) [Compound 117, (±)-8-(1-(1-(ethylsulfonyl)piperidin-4-yl)ethyl)-N-((4-methoxy-6-methyl-2-oxo-1,2-dihydropyridin-3-yl)methyl)-7-methylpyrrolo[1,2-a]pyrazine-6-carboxamide]	> 7.00	> 7.00			
CCS(=O)(=O)N1CCC(C(C)c2c(C)c(C(=O)NCc3c(OC)cc(C)[nH]c3=O)c3cnccn23)CC1 (racemic) [Compound 119, (±)-6-(1-(1-(ethylsulfonyl)piperidin-4-yl)ethyl)-N-((4-methoxy-6-methyl-2-oxo-1,2-dihydropyridin-3-yl)methyl)-7-methylpyrrolo[1,2-a]pyrazine-8-carboxamide]	> 7.00	> 7.00			
Cc1cc(C)c(CNC(=O)c2c(C)c(C(C)C3CCN(C)CC3)n3ncccc23)c(=O)[nH]1 (racemic) [Compound 124, (±)-N-((4,6-dimethyl-2-oxo-1,2-dihydropyridin-3-yl)methyl)-6-methyl-7-(1-(1-methylpiperidin-4-yl)ethyl)pyrrolo[1,2-b]pyridazine-5-carboxamide]	> 7.00	6.00 to 7.00			
COc1cc(C)[nH]c(=O)c1CNC(=O)c1c(C)c(C(C)=O)n2ncccc12 [Compound 100, 7-acetyl-N-((4-methoxy-6-methyl-2-oxo-1,2-dihydropyridin-3-yl)methyl)-6-methylpyrrolo[1,2-b]pyridazine-5-carboxamide]	5.00 to 6.00	< 5.00			
COc1cc(C)[nH]c(=O)c1CNC(=O)c1c(C)c(-c2ccnn2C)n2ncccc12 [Compound 109, N-((4-methoxy-6-methyl-2-oxo-1,2-dihydropyridin-3-yl)methyl)-6-methyl-7-(1-methyl-1H-pyrazol-5-yl)pyrrolo[1,2-b]pyridazine-5-carboxamide]	6.00 to 7.00	6.00 to 7.00			
Cc1cc(C)c(CNC(=O)c2c(C)c(-c3c(C)noc3C)n3ncccc23)c(=O)[nH]1 [Compound 118, N-((4,6-dimethyl-2-oxo-1,2-dihydropyridin-3-yl)methyl)-7-(3,5-dimethylisoxazol-4-yl)-6-methylpyrrolo[1,2-b]pyridazine-5-carboxamide]	> 7.00	> 7.00			
COc1cc(C)[nH]c(=O)c1CNC(=O)c1c(C)c(-c2c(C)cnn2C)n2ncccc12 [Compound 120, 7-(1,4-dimethyl-1H-pyrazol-5-yl)-N-((4-methoxy-6-methyl-2-oxo-1,2-dihydropyridin-3-yl)methyl)-6-methylpyrrolo[1,2-b]pyridazine-5-carboxamide]	6.00 to 7.00	6.00 to 7.00			
CCCc1cc(C)[nH]c(=O)c1CNC(=O)c1c(C)c(-c2c(C)noc2C)n2ncccc12 [Compound 123, 7-(3,5-dimethylisoxazol-4-yl)-6-methyl-N-((6-methyl-2-oxo-4-propyl-1,2-dihydropyridin-3-yl)methyl)pyrrolo[1,2-b]pyridazine-5-carboxamide]	> 7.00			*(0.5 μM)	
Cc1cc(C)c(CNC(=O)c2c(C)c(C(=O)N3CCOCC3)n3ncccc23)c(=O)[nH]1 [Compound 125, N-((4,6-dimethyl-2-oxo-1,2-dihydropyridin-3-yl)methyl)-6-methyl-7-(morpholine-4-carbonyl)pyrrolo[1,2-b]pyridazine-5-carboxamide]	6.00 to 7.00				
Cc1cc(C)c(CNC(=O)c2c(C)c(C(=O)N3CCN(S(C)(=O)=O)CC3)n3ncccc23)c(=O)[nH]1 [Compound 126, N-((4,6-dimethyl-2-oxo-1,2-dihydropyridin-3-yl)methyl)-6-methyl-7-(4-(methylsulfonyl)piperazine-1-carbonyl)pyrrolo[1,2-b]pyridazine-5-carboxamide]	5.00 to 6.00				
COc1ccc2c(C(=O)NCc3c(C)cc(C)[nH]c3=O)c(C)c(C(C)C3CCN(CC(C)(C)O)CC3)n2n1 (stereo not drawn) [Compound 127, N-((4,6-dimethyl-2-oxo-1,2-dihydropyridin-3-yl)methyl)-7-(1-(1-(2-hydroxy-2-methylpropyl)piperidin-4-yl)ethyl)-2-methoxy-6-methylpyrrolo[1,2-b]pyridazine-5-carboxamide]	> 7.00				5.00 to 5.70
Cc1cc(C)c(CNC(=O)c2c(C)c(C(C)C3CCN(CC(C)(C)O)CC3)n3ncccc23)c(=O)[nH]1 (stereo not drawn) [Compound 128, N-((4,6-dimethyl-2-oxo-1,2-dihydropyridin-3-yl)methyl)-7-(1-(1-(2-hydroxy-2-methylpropyl)piperidin-4-yl)ethyl)-6-methylpyrrolo[1,2-b]pyridazine-5-carboxamide]	> 7.00				> 6.40
CCN(C)C(C)c1c(C)c(C(=O)NCc2c(OC)cc(C)[nH]c2=O)c2cccnn12 (stereo not drawn) [Compound 131, 7-(1-(ethyl(methyl)amino)ethyl)-N-((4-methoxy-6-methyl-2-oxo-1,2-dihydropyridin-3-yl)methyl)-6-methylpyrrolo[1,2-b]pyridazine-5-carboxamide]	6.00 to 7.00				
